The results in this text go back to US9085606B2, “Beta amino acid derivatives as integrin antagonists” (Saint Louis University, priority 2012, dated 2015).

The target of experiment [1] is T1, Recombinant human integrin αvβ6 (Homo sapiens, UniProt P06756+P18564).
T1 construct: purchased R&D Systems 3817-AV
Kind of experiment: Solid Phase Receptor Assay for αvβ6 Function. The conditions noted are these: binding to LAP-coated plate; read-out: αvβ6 SPRA IC50. The procedure: Solid Phase Receptor Assay for αvβ6 Function.
(§1) Wells were washed 3 times with 150 μL TBS+, and 150 μL of blocking buffer (TBS+ with 1% bovine serum albumin, Sigma A7906) were added. The plate was incubated for 1 hr at 37° C., and then washed 3× with TBS+ buffer. […] Compounds were diluted 1:100 into the integrin solution and then 50 μL added to empty wells of the washed LAP-coated plate according to a standard template with each sample repeated in triplicate. After incubation for two hours at room temperature, the plate was washed 3× with 150 μL of TBS+ buffer. To each well, 50 μL of biotinylated anti-αv antibody (R&D Systems, BAF1219) at 0.5 μg/mL in TBS+/0.1% BSA were added and the plate was covered and incubated for 1 hr at room temperature. After washing the plate 3× with 150 μL of TBS+ buffer, 50 μL of streptavidin-conjugated horseradish peroxidase (R&D Systems, DY998) diluted in TBS+ blocking buffer were added to the wells and the plate incubated for 20 min at room temperature. The plate was washed 3× with TBS+ buffer followed by 50 μL of TMB substrate (Sigma T4444) added to each well and the plate incubated for 20 min at room temperature. The reaction was optionally stopped with 25 μL of Stop Solution (Sigma S5689). Plates were read by colorimetric detection at 650 nm wavelength using a Tecan Safire II plate reader.

Experiment [2] concerns the target T2, Recombinant human integrin αvβ3 (Homo sapiens, UniProt P05106+P06756).
T2 construct: purchased R&D Systems 3050-AV
Kind of experiment: Solid Phase Receptor Assay for αvβ3 Function. The conditions noted are these: binding to vitronectin-coated plate; read-out: αvβ3 SPRA IC50. The procedure:
Solid Phase Receptor Assay for αvβ3 Function.
Wells were washed 3 times with 150 μL TBS+ and 150 μL of blocking buffer (TBS+ with 1% bovine serum albumin, Sigma A7906) were added. The plate was incubated for 1 hr at 37° C. and then washed 3× with TBS+ buffer. […] Compounds were diluted 1:100 into the integrin solution and then 50 μL added to empty wells of the washed vitronectin-coated plate according to a standard template with each sample repeated in triplicate. After incubation for two hours at room temperature, the plate was washed 3× with 150 μL of TBS+ buffer. To each well, 50 μL of biotinylated anti-αv antibody (R&D Systems, BAF1219) at 0.5 μg/mL in TBS+/0.1% BSA were added and the plate covered and incubated for 1 hr at room temperature. After washing the plate 3× with 150 μL of TBS+ buffer, 50 μL of streptavidin-conjugated horseradish peroxidase (R&D Systems, DY998) diluted in TBS+ blocking buffer were added to the wells and the plate incubated for 20 min at room temperature. The plate was washed 3× with TBS+ buffer followed by 50 μL of TMB substrate (Sigma, T4444) added to each well and the plate was incubated for 20 min at room temperature. The reaction was optionally stopped with 25 μL of Stop Solution (Sigma, S5689). Plates were read by colorimetric detection at 650 nm wavelength using a Tecan S afire II plate reader.

Experiment [3] has as its target T3, Recombinant human integrin αvβ1 (Homo sapiens, UniProt P05556+P06756).
T3 construct: purchased R&D Systems 6579-AV
Put plainly: Solid Phase Receptor Assay for αvβ1 Function. The conditions noted are these: binding to fibronectin-coated plate; read-out: αvβ1 SPRA IC50. As for the experimental part: Solid Phase Receptor Assay for αvβ1 Function.
Wells were washed 3 times with 150 μl TBS+ and 150 μL of blocking buffer (TBS+ with 1% bovine serum albumin, Sigma A7906) were added. The plate was incubated for 1 hr at 37° C. and then washed 3× with TBS+ buffer. […] Compounds were diluted 1:100 into the integrin solution and 50 μL added to empty wells of the washed fibronectin-coated plate according to a standard template with each sample repeated in triplicate. After incubation for two hours at room temperature, the plate was washed 3× with 150 μL of TBS+ buffer. To each well, 50 μL of biotinylated anti-αv antibody (R&D Systems, BAF1219) at 1 μg/mL in TBS+/0.1% BSA were added and the plate covered and incubated for 1 hr at room temperature. After washing the plate 3× with 150 μL of TBS+ buffer, 50 μL of streptavidin-conjugated horseradish peroxidase (R&D Systems, DY998) diluted in TBS+ blocking buffer were added to the wells and the plate incubated for 20 min at room temperature. The plate was washed 3× with TBS+ buffer followed by 50 μL of TMB substrate (Sigma, T4444) added to each well and the plate incubated for 20 min at room temperature. The reaction was optionally stopped with 25 μL of Stop Solution (Sigma S5689). Plates were read by colorimetric detection at 650 nm wavelength using a Tecan Safire II plate reader.

Experiment [4] has as its target T4, Recombinant human integrin αvβ5 (Homo sapiens, UniProt P06756+P18084).
T4 construct: purchased R&D Systems 2528-AV
Kind of experiment: Solid Phase Receptor Assay for αvβ5 Function. The conditions noted are these: binding to vitronectin-coated plate; read-out: αvβ5 SPRA IC50. As for the experimental part: Solid Phase Receptor Assay for αvβ5 Function.
as §1, with “150 μL TBS+ and 150” for “150 μL TBS+, and 150”, “at 37° C. and then” for “at 37° C., and then”, “the washed vitronectin-coated plate according” for “the washed LAP-coated plate according”, “TBS+/0.1% BSA at 0.5 μg/mL were added” for “TBS+/0.1% BSA were added”, “the plate covered and” for “the plate was covered and”, “peroxidase (R&D Systems DY998) diluted” for “peroxidase (R&D Systems, DY998) diluted”

T3 sequence (P06756 31-992 limits assumed): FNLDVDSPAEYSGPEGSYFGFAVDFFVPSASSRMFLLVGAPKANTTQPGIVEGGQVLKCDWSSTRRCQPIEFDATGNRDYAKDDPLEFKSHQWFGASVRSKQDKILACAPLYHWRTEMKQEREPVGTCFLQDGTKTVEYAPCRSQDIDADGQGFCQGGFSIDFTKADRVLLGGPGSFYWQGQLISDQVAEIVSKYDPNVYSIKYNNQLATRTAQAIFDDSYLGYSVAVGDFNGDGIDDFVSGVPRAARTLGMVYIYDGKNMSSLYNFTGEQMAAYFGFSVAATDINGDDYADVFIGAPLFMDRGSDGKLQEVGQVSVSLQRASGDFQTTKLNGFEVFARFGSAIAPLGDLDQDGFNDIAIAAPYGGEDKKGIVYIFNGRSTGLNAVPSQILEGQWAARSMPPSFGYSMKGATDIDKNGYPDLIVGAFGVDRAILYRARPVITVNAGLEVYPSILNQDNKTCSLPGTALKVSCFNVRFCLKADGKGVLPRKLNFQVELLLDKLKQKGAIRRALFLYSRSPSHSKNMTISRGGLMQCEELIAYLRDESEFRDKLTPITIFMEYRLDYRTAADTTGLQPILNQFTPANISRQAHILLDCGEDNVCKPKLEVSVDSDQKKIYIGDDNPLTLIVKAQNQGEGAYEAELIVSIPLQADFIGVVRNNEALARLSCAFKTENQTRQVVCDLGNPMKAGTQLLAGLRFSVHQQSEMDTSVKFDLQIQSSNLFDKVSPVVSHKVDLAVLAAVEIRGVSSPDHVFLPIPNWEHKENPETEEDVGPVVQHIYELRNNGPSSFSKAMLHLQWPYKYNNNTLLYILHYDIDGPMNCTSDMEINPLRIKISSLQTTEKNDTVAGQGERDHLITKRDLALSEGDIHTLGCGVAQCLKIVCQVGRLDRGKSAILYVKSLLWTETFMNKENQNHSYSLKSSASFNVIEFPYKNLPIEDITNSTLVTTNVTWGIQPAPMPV
T3 sequence (P05556 21-728 limits assumed): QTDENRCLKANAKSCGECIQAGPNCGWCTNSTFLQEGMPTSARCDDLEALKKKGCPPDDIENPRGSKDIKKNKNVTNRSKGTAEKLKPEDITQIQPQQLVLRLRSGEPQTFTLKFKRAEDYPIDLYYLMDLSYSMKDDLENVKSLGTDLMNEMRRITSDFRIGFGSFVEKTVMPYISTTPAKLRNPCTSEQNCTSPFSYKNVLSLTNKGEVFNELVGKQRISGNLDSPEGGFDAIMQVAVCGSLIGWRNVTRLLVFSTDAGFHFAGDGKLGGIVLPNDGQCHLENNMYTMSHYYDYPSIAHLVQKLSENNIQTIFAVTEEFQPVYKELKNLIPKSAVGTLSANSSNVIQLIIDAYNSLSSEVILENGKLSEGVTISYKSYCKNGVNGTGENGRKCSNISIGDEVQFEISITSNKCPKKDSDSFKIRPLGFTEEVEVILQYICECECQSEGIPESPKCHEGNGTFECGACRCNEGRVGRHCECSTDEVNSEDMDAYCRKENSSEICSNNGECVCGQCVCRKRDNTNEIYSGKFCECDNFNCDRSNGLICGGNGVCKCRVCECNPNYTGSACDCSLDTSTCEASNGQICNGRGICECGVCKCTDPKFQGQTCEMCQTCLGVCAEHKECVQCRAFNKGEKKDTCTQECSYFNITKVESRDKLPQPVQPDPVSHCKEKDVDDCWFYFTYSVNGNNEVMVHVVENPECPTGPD
T4 sequence (P06756 31-992 limits assumed): as the sequence (P06756 31-992 limits assumed) above
T4 sequence (P18084 24-719 limits assumed): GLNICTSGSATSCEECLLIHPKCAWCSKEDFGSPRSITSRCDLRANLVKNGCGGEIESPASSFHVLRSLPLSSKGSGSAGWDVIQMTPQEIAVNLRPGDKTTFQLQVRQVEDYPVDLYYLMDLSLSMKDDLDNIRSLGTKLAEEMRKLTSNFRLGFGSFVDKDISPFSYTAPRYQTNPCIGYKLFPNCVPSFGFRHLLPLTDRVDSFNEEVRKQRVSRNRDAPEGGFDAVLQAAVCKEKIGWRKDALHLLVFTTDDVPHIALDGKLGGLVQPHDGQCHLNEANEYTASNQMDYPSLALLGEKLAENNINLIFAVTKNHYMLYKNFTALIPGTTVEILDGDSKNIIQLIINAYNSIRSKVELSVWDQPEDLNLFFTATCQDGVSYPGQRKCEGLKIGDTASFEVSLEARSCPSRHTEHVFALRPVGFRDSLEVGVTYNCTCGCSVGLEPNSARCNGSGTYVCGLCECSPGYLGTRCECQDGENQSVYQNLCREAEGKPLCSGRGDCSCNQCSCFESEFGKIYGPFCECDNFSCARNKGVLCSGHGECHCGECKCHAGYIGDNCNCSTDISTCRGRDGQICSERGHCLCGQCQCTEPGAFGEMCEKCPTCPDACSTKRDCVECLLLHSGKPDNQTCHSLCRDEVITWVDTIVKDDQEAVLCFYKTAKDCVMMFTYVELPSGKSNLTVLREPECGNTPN
T1 sequence (P06756 31-992 limits assumed): as the sequence (P06756 31-992 limits assumed) above
T1 sequence (P18564 22-707 limits assumed): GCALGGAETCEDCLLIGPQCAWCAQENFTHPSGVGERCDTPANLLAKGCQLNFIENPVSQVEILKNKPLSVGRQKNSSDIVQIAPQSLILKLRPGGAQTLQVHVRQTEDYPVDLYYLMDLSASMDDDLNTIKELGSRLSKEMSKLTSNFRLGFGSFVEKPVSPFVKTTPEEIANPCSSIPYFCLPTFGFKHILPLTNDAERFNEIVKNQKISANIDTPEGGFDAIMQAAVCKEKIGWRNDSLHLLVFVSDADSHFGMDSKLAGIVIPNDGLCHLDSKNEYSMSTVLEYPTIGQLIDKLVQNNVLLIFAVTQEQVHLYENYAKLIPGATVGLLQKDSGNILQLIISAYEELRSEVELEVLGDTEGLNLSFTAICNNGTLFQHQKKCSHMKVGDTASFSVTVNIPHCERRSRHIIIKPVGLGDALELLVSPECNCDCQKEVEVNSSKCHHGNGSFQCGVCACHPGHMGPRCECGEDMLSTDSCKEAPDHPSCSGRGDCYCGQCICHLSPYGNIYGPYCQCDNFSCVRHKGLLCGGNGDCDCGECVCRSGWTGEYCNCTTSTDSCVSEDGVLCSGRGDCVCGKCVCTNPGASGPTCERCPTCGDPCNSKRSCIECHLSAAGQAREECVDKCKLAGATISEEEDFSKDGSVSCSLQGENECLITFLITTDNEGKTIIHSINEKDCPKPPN
T2 sequence (P06756 31-992 limits assumed): as the sequence (P06756 31-992 limits assumed) above
T2 sequence (P05106 27-718 limits assumed): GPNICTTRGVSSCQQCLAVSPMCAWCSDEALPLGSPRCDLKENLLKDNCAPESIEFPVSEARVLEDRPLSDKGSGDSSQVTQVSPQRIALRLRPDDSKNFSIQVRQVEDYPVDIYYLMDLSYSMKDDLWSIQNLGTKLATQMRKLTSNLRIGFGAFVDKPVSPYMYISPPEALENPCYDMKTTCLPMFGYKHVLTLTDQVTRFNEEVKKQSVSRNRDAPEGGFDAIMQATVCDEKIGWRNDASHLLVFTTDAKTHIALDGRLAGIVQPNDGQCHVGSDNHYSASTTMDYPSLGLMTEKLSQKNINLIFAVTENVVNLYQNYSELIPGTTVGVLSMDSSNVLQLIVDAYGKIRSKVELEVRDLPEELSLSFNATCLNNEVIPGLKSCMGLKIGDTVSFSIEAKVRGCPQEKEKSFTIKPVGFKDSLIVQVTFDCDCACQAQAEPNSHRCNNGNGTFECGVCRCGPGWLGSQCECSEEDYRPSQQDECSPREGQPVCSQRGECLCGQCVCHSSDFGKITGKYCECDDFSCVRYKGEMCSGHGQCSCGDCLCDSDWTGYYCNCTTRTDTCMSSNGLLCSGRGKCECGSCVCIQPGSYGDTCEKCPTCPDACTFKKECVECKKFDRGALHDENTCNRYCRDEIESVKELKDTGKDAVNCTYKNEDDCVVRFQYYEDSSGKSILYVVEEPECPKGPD

`CC(C)(O)c1cc([C@H](CC(=O)O)NC(=O)CNC(=O)c2cc(O)cc(NC3=NCC(O)CN3)c2)cc(C(F)(F)F)c1` (stereo partly drawn) [Example 13, (3S)-3-(2-(3-hydroxy-5-((5-hydroxy-1,4,5,6-tetrahydropyrimidin-2-yl)amino)benzamido)acetamido)-3-(3-(2-hydroxypropan-2-yl)-5-(trifluoromethyl)phenyl)propanoic acid]: the concentration for half-maximal inhibition (IC50) – broadly, the concentration that gives 50% inhibition – in experiment [1] is 0.6 nM; in experiment [2] it was 1.8 nM; in experiment [3], 4 nM; in experiment [4], 0.3 nM.

Take `COCC(C)(C)c1cc(Cl)cc([C@H](CC(=O)O)NC(=O)CNC(=O)c2cc(O)cc(NC3=NCC(O)CN3)c2)c1` (stereo partly drawn) [Example 14, (3S)-3-(3-chloro-5-(1-methoxy-2-methylpropan-2-yl)phenyl)-3-(2-(3-hydroxy-5-((5-hydroxy-1,4,5,6-tetrahydropyrimidin-2-yl)amino)benzamido)acetamido)propanoic acid]: the IC50 in experiment [1] was found to be 0.4 nM; in experiment [2], 1.7 nM; in experiment [3], 2.4 nM; in experiment [4], 0.3 nM.

In the case of `CC(C)(CO)c1cc(Cl)cc([C@H](CC(=O)O)NC(=O)CNC(=O)c2cc(O)cc(NC3=NCC(O)CN3)c2)c1` (stereo partly drawn) [Example 15, (3S)-3-(3-chloro-5-(1-hydroxy-2-methylpropan-2-yl)phenyl)-3-(2-(3-hydroxy-5-((5-hydroxy-1,4,5,6-tetrahydropyrimidin-2-yl)amino)benzamido)acetamido)propanoic acid], the IC50 in experiment [1] worked out at 0.4 nM; in experiment [2], 3.3 nM; in experiment [3] it was 2.9 nM; in experiment [4] it was 0.4 nM.

As to `COCC1(c2cc(Cl)cc([C@H](CC(=O)O)NC(=O)CNC(=O)c3cc(O)cc(NC4=NCC(O)CN4)c3)c2)CCOCC1` (stereo partly drawn) [Example 16, (3S)-3-(3-chloro-5-(4-(Methoxymethyl)tetrahydro-2H-pyran-4-yl)phenyl)-3-(2-(3-hydroxy-5-((5-hydroxy-1,4,5,6-tetrahydropyrimidin-2-yl)amino)benzamido)acetamido)propanoic acid], the IC50 in experiment [1] was 0.5 nM; in experiment [2] it was 1.7 nM; in experiment [3] it was 3.3 nM; in experiment [4] it was 0.6 nM.

As to `O=C(O)C[C@H](NC(=O)CNC(=O)c1cc(O)cc(NC2=NCC(O)CN2)c1)c1cc(Cl)cc(C2(CO)CCOCC2)c1` (stereo partly drawn) [Example 17, (3S)-3-(3-chloro-5-(4-(hydroxymethyl)tetrahydro-2H-pyran-4-yl)phenyl)-3-(2-(3-hydroxy-5-((5-hydroxy-1,4,5,6-tetrahydropyrimidin-2-yl)amino)benzamido)acetamido)propanoic acid], the IC50 in experiment [1] was 0.5 nM; in experiment [2], 4 nM; in experiment [3], 3 nM; in experiment [4], 0.5 nM.

As to `CC(C)(C)c1cc(-c2cccnc2)cc([C@H](CC(=O)O)NC(=O)CNC(=O)c2cc(O)cc(NC3=NCC(O)CN3)c2)c1` (stereo partly drawn) [Example 18, (3S)-3-(3-(tert-butyl)-5-(pyridin-3-yl)phenyl)-3-(2-(3-hydroxy-5-((5-hydroxy-1,4,5,6-tetrahydropyrimidin-2-yl)amino)benzamido)acetamido)propanoic acid], the IC50 in experiment [1] came to 0.6 nM; in experiment [2], 14.5 nM; in experiment [3] it was 3.4 nM; in experiment [4], 21 nM.

Consider `CC(C)(C)c1cc(-c2cncnc2)cc([C@H](CC(=O)O)NC(=O)CNC(=O)c2cc(O)cc(NC3=NCC(O)CN3)c2)c1` (stereo partly drawn) [Example 19, (3S)-3-(3-(tert-butyl)-5-(pyrimidin-5-yl)phenyl)-3-(2-(3-hydroxy-5-((5-hydroxy-1,4,5,6-tetrahydropyrimidin-2-yl)amino)benzamido)acetamido)propanoic acid], for which the IC50 in experiment [1] was found to be 0.7 nM; in experiment [2] it was 8.8 nM; in experiment [3], 4.1 nM; in experiment [4], 21 nM.

As to `O=C(O)C[C@H](NC(=O)CNC(=O)c1cc(O)cc(NC2=NCC(O)CN2)c1)c1cc(Cl)cc(C2(CF)CCOCC2)c1` (stereo partly drawn) [Example 20, (3S)-3-(3-chloro-5-(4-(fluoromethyl)tetrahydro-2H-pyran-4-yl)phenyl)-3-(2-(3-hydroxy-5-((5-hydroxy-1,4,5,6-tetrahydropyrimidin-2-yl)amino)benzamido)acetamido)propanoic acid], the IC50 in experiment [1] turned out to be 1.4 nM; in experiment [2], 3.7 nM; in experiment [3], 4.9 nM; in experiment [4], 0.5 nM.
